Results from patent US20250154144A1 (CHILDREN'S HOSPITAL MEDICAL CENTER, priority 2021, published 2025).
Numbering of substitutions follows the chain as printed. Read-outs that look alike come from different tables or passages of the source.

Legend:
FLT3 D835Y = target: T1, FLT3 D835Y (Homo sapiens, UniProt P36888, D835Y); assay: DiscoverX KINOMEscan competition binding, FLT3 D835Y
T1 construct: purchased DiscoverX (KINOMEscan)
T1 sequence (P36888 27-993 D835Y): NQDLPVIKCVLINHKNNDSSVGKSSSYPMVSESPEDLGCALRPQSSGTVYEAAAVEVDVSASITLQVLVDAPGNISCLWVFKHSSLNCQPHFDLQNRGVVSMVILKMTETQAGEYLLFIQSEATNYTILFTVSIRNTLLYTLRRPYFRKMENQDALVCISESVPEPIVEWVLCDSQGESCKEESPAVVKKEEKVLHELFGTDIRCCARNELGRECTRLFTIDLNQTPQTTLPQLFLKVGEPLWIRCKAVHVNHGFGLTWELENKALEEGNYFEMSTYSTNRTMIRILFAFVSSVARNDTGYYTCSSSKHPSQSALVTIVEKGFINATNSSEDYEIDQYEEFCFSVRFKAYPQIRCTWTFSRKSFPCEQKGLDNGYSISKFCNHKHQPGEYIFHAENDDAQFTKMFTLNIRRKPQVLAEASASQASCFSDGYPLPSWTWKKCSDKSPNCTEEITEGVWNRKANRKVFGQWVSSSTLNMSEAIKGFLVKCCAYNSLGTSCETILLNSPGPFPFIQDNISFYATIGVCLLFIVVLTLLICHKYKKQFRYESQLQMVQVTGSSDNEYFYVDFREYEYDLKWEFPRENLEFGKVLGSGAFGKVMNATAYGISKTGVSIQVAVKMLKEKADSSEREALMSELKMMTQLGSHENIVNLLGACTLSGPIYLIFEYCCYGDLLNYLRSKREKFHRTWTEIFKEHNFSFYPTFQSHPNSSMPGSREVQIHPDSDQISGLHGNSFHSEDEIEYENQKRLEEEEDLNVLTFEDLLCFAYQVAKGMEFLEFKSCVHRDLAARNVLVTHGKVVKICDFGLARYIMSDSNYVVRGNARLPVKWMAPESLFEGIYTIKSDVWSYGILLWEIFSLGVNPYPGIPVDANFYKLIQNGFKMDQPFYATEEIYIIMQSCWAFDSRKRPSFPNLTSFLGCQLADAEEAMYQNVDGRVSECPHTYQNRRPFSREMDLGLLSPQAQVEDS

MOLM14(D835Y) cells = type: cell-based; settings: for Excess HSA Score: 10 × 10
FLT3 K663Q = target: T2, FLT3 K663Q (Homo sapiens, UniProt P36888, K663Q); assay: DiscoverX KINOMEscan competition binding, FLT3 K663Q
T2 construct: purchased DiscoverX (KINOMEscan)
T2 sequence (P36888 27-993 K663Q): T1 sequence (P36888 27-993 D835Y) with K637Q, Y809D

THP1 cells = assay: Combination drug screening, Cell Titer Glo, 10 × 10 matrix, THP1 cells; type: cell-based
[1] = MOLM14(D835Y) cells, combination with Eprenetapopt/APR-246
[2] = MOLM14(D835Y) cells, combination with Venetoclax (ABT-199)
[3] = starting conc. 200 nM, with (+)-BAY-1251152 starting conc. 1000 nM
[4] = starting conc. 200 nM, with Azacitidine (5-Azacytidine) starting conc. 20000 nM
[5] = starting conc. 200 nM, with Palbociclib starting conc. 10000 nM
[6] = starting conc. 200 nM, with Prednisolone starting conc. 10000 nM
[7] = starting conc. 200 nM, with TNO-155 starting conc. 10000 nM
[8] = starting conc. 200 nM, with Venetoclax (ABT-199) starting conc. 2000 nM
[9] = starting conc. 200 nM, with Venetoclax (ABT-199) starting conc. 20000 nM
[10] = starting conc. 20000 nM, with (+)-BAY-1251152 starting conc. 1000 nM
[11] = starting conc. 20000 nM, with Azacitidine (5-Azacytidine) starting conc. 20000 nM
[12] = starting conc. 20000 nM, with Palbociclib starting conc. 10000 nM
[13] = starting conc. 20000 nM, with Prednisolone starting conc. 10000 nM
[14] = starting conc. 20000 nM, with TNO-155 starting conc. 10000 nM
[15] = starting conc. 20000 nM, with Venetoclax (ABT-199) starting conc. 2000 nM
[16] = starting conc. 20000 nM, with Venetoclax (ABT-199) starting conc. 20000 nM

Kd (FLT3 D835Y): 0.74 nM | Kd (FLT3 K663Q): 3.8 nM
SMILES: COc1cc2ncc(-c3cncc(N[C@H]4CNCC[C@@H]4F)n3)n2nc1C1CC1 [Compound 24, 6-(6-cyclopropyl-7-methoxyimidazo[1,2-b]pyridazin-3-yl)-N-((3S,4S)-4-fluoropiperidin-3-yl)pyrazin-2-amine]
Excess HSA Score (MOLM14(D835Y) cells; MOLM14(D835Y) cells, combination with (+)-BAY-1251152): −245.2 | Excess HSA Score (MOLM14(D835Y) cells; MOLM14(D835Y) cells, combination with AMG-232): 468.3 | Excess HSA Score (MOLM14(D835Y) cells; MOLM14(D835Y) cells, combination with AZD-5363): −1011 | Excess HSA Score (MOLM14(D835Y) cells; [1]): 143 | Excess HSA Score (MOLM14(D835Y) cells; MOLM14(D835Y) cells, combination with Ivosidenib): 282.2936 | Excess HSA Score (MOLM14(D835Y) cells; MOLM14(D835Y) cells, combination with Lenalidomide): 491.2 | Excess HSA Score (MOLM14(D835Y) cells; MOLM14(D835Y) cells, combination with Palbociclib): −732.6 | Excess HSA Score (MOLM14(D835Y) cells; MOLM14(D835Y) cells, combination with Prednisolone): 169.8 | Excess HSA Score (MOLM14(D835Y) cells; MOLM14(D835Y) cells, combination with SNDX-5613): −279.3 | Excess HSA Score (MOLM14(D835Y) cells; MOLM14(D835Y) cells, combination with TNO-155): −1249 | Excess HSA Score (MOLM14(D835Y) cells; MOLM14(D835Y) cells, combination with Trametinib): −336.8 | Excess HSA Score (MOLM14(D835Y) cells; MOLM14(D835Y) cells, combination with Ulixertinib): −260.4 | Excess HSA Score (MOLM14(D835Y) cells; [2]): −1890 | Comments (MOLM14(D835Y) cells; [1]): Antagonistic | Comments (MOLM14(D835Y) cells; [2]): Synergistic | Excess HSA Score (MOLM14(D835Y) cells; MOLM14(D835Y), title compound starting conc. 200 nM + (+)-BAY-1251152 starting conc. 1000 nM): −369.2 | Excess HSA Score (MOLM14(D835Y) cells; MOLM14(D835Y), title compound starting conc. 200 nM + Azacitidine (5-Azacytidine) starting conc. 20000 nM): −594 | Excess HSA Score (MOLM14(D835Y) cells; MOLM14(D835Y), title compound starting conc. 200 nM + Palbociclib starting conc. 10000 nM): −490.9 | Excess HSA Score (MOLM14(D835Y) cells; MOLM14(D835Y), title compound starting conc. 200 nM + Prednisolone starting conc. 10000 nM): 12.1697 | Excess HSA Score (MOLM14(D835Y) cells; MOLM14(D835Y), title compound starting conc. 200 nM + TNO-155 starting conc. 10000 nM): −944.7 | Excess HSA Score (MOLM14(D835Y) cells; MOLM14(D835Y), title compound starting conc. 200 nM + Venetoclax (ABT-199) starting conc. 2000 nM): −764.8 | Excess HSA Score (MOLM14(D835Y) cells; MOLM14(D835Y), title compound starting conc. 200 nM + Venetoclax (ABT-199) starting conc. 20000 nM): −71.65 | Excess HSA Score (MOLM14(D835Y) cells; MOLM14(D835Y), title compound starting conc. 20000 nM + (+)-BAY-1251152 starting conc. 1000 nM): −47.77 | Excess HSA Score (MOLM14(D835Y) cells; MOLM14(D835Y), title compound starting conc. 20000 nM + Azacitidine (5-Azacytidine) starting conc. 20000 nM): −49.15 | Excess HSA Score (MOLM14(D835Y) cells; MOLM14(D835Y), title compound starting conc. 20000 nM + Palbociclib starting conc. 10000 nM): 182.1 | Excess HSA Score (MOLM14(D835Y) cells; MOLM14(D835Y), title compound starting conc. 20000 nM + Prednisolone starting conc. 10000 nM): 153.7 | Excess HSA Score (MOLM14(D835Y) cells; MOLM14(D835Y), title compound starting conc. 20000 nM + TNO-155 starting conc. 10000 nM): −94.76 | Excess HSA Score (MOLM14(D835Y) cells; MOLM14(D835Y), title compound starting conc. 20000 nM + Venetoclax (ABT-199) starting conc. 2000 nM): −501.6 | Excess HSA Score (MOLM14(D835Y) cells; MOLM14(D835Y), title compound starting conc. 20000 nM + Venetoclax (ABT-199) starting conc. 20000 nM): −122.6 | Excess HSA Score (THP1 cells; THP1 cells, 10 × 10, combination with (+)-BAY-1251152): −308.4 | Excess HSA Score (THP1 cells; THP1 cells, 10 × 10, combination with AMG-232): 144.3 | Excess HSA Score (THP1 cells; THP1 cells, 10 × 10, combination with AZD-5363): −379.5012 | Excess HSA Score (THP1 cells; THP1 cells, 10 × 10, combination with Eprenetapopt/APR-246): −87.03 | Excess HSA Score (THP1 cells; THP1 cells, 10 × 10, combination with Ivosidenib): 107 | Excess HSA Score (THP1 cells; THP1 cells, 10 × 10, combination with Lenalidomide): −94.52 | Excess HSA Score (THP1 cells; THP1 cells, 10 × 10, combination with Palbociclib): −359.2 | Excess HSA Score (THP1 cells; THP1 cells, 10 × 10, combination with Prednisolone): 35 | Excess HSA Score (THP1 cells; THP1 cells, 10 × 10, combination with SNDX-5613): 504 | Excess HSA Score (THP1 cells; THP1 cells, 10 × 10, combination with TNO-155): −66.32 | Excess HSA Score (THP1 cells; THP1 cells, 10 × 10, combination with Trametinib): −416.7 | Excess HSA Score (THP1 cells; THP1 cells, 10 × 10, combination with Ulixertinib): −298.8 | Excess HSA Score (THP1 cells; THP1 cells, 10 × 10, combination with Venetoclax (ABT-199)): −2203 | Comments (THP1 cells; THP1 cells, combination with Prednisolone): Antagonistic | Comments (THP1 cells; THP1 cells, combination with Venetoclax (ABT-199)): Synergistic | Comments (THP1 cells; [3]): Synergistic at both | Excess HSA Score (THP1 cells; [3]): −571 | Comments (THP1 cells; [4]): Synergism is more | Excess HSA Score (THP1 cells; [4]): −34.1 | Comments (THP1 cells; [5]): Synergistic at both | Excess HSA Score (THP1 cells; [5]): −217.9 | Comments (THP1 cells; [6]): Antagonistic at both | Excess HSA Score (THP1 cells; [6]): 212.2 | Comments (THP1 cells; [7]): Synergistic | Excess HSA Score (THP1 cells; [7]): −37.04 | Comments (THP1 cells; [8]): Synergistic; Optimal | Excess HSA Score (THP1 cells; [8]): −888.9 | Comments (THP1 cells; [9]): Synergistic; Optimal | Excess HSA Score (THP1 cells; [9]): −1905 | Comments (THP1 cells; [10]): Synergistic at both | Excess HSA Score (THP1 cells; [10]): −641.3 | Comments (THP1 cells; [11]): Synergism is more | Excess HSA Score (THP1 cells; [11]): −703.5 | Comments (THP1 cells; [12]): Synergistic at both | Excess HSA Score (THP1 cells; [12]): −318.6 | Comments (THP1 cells; [13]): Antagonistic at both | Excess HSA Score (THP1 cells; [13]): 291 | Comments (THP1 cells; [14]): Antagonistic over | Excess HSA Score (THP1 cells; [14]): 308.6 | Comments (THP1 cells; [15]): Synergistic; Optimal | Excess HSA Score (THP1 cells; [15]): −108.3 | Comments (THP1 cells; [16]): Synergistic; Optimal | Excess HSA Score (THP1 cells; [16]): −1677
